Test results: patent publication US11000033B2, “Ketone or oxime compound, and herbicide” (NISSAN CHEMICAL CORPORATION, priority 2014, dated 2021)

What was measured:
Format in all cases: in vivo
[1] = tested on: Echinochloa oryzacola Vasing.; test: Test Example 1: herbicidal activity, application before weed generation in submerged conditions (symbol A); conditions: application herbicide amount 320 g/ha
How it was run: (§1)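 Weed control was rated three weeks after treatment on a 0–5 scale, from 5% or lower up to 90% or more. Pre-emergence water-surface application of diluted emulsion at a predetermined rate was made on the day of sowing, in flooded (4 cm water) pots containing rice seedlings, kept at 25–30 °C under glass.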

[2] = tested on: Monochoria vaginalis; test: Test Example 1: herbicidal activity, application before weed generation in submerged conditions (symbol C); conditions: application herbicide amount 320 g/ha
How it was run: as §1

[3] = tested on: transplanted rice plant; test: Test Example 1: effect on crop, application before weed generation in submerged conditions (symbol a); conditions: application herbicide amount 320 g/ha
How it was run: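 Rice at 2.5 leaf stage transplanted into submerged soil (4 cm depth) sown with three weed species; herbicide applied before weed emergence.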

[4] = tested on: directly sowed rice plant; test: Test Example 3: effect on crop by foliage application, Wagner pot (symbol b); conditions: application herbicide amount 320 g/ha
How it was run: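 Plants are raised from seed in flooded paddy conditions: water stands 0.1–0.5 cm over alluvial soil, and the pot is kept in a greenhouse at 25–30 °C. Species sown are barnyardgrass (E. crus-galli var. crus-galli), Leptochloa chinensis, Cyperus difformis and rice.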

[5] = tested on: Lolium multiflorum Lam.; test: Test Example 4: herbicidal effect by soil treatment (symbol K); conditions: application herbicide amount 320 g/ha
How it was run: (§2)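 Seeds were sown in sterilized diluvial soil, covered with about 1.5 cm of soil, and the soil surface was sprayed with a water-diluted emulsion of the compound at a predetermined rate. Plants grew in a greenhouse at 25° C. to 30° C.; effects were scored visually 3 weeks after application.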

[6] = tested on: Chenopodium album; test: Test Example 4: herbicidal effect by soil treatment (symbol O); conditions: application herbicide amount 320 g/ha
How it was run: as §2

[7] = tested on: soybean; test: Test Example 4: effect on crop by soil treatment (symbol d); conditions: application herbicide amount 320 g/ha
How it was run: (§3)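 Sterilized diluvial soil, spot sowing, ~1.5 cm soil cover; greenhouse 25–30° C.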

[8] = tested on: rice; test: Test Example 4: effect on crop by soil treatment (symbol b); conditions: application herbicide amount 320 g/ha
How it was run: as §3

[9] = tested on: Digitaria ciliaris; test: Test Example 5: herbicidal effect by foliage application, plastic box (symbol F); conditions: 320 g/ha, 3 weeks after application
How it was run: (§4)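 Leaf-applied emulsion, water-diluted to a preset herbicide dose, on two-week-old seedlings raised in a 25° C. to 30° C. greenhouse; injury rated at 3 weeks using earlier criteria.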

[10] = tested on: Echinochloa crus-galli var. crus-galli; test: Test Example 5: herbicidal effect by foliage application, plastic box (symbol H); conditions: 320 g/ha, 3 weeks after application
How it was run: as §4

[11] = tested on: Alopecurus myosuroides; test: Test Example 5: herbicidal effect by foliage application, plastic box (symbol J); conditions: 320 g/ha, 3 weeks after application
How it was run: as §4

[12] = tested on: Lolium multiflorum Lam.; test: Test Example 5: herbicidal effect by foliage application, plastic box (symbol K); conditions: 320 g/ha, 3 weeks after application
How it was run: as §4

[13] = tested on: Abutilon theophrasti; test: Test Example 5: herbicidal effect by foliage application, plastic box (symbol M); conditions: 320 g/ha, 3 weeks after application
How it was run: as §4

[14] = tested on: Amaranthus retroflexus; test: Test Example 5: herbicidal effect by foliage application, plastic box (symbol N); conditions: 320 g/ha, 3 weeks after application
How it was run: as §4

[15] = tested on: corn; test: Test Example 5: effect on crop by foliage application, plastic box (symbol c); conditions: 320 g/ha, 3 weeks after application
How it was run: (§5)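 In a plastic box 7 cm deep filled with sterilized diluvial soil, seeds of crops and weeds such as Digitaria ciliaris, Avena fatua and Amaranthus retroflexus are sown in spots and covered with about 1.5 cm of soil before greenhouse growth at 25–30° C.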

[16] = tested on: rice plant; test: Test Example 5: effect on crop by foliage application, plastic box (symbol b); conditions: 320 g/ha, 3 weeks after application
How it was run: as §5

CON=C(C)CC1CC(OC(=O)COc2ccccc2)=C(c2c(C)cc(C)cc2OC)C1=O (stereo not shown) [6-091]
Herbicidal effect grade, A: Echinochloa oryzacola Vasing. [1]: 5 (Herbicidal ratio of 90% or more (almost completely withered)) | Herbicidal effect grade, C: Monochoria vaginalis [2]: 4 (Herbicidal ratio of 70% or higher and lower than 90%) | Effect grade on crop, a: transplanted rice plant [3]: 5 (Herbicidal ratio of 90% or more (almost completely withered)) | effect on crop b (directly sowed rice plant), grade 0-5 [4]: 5 (Herbicidal ratio of 90% or more (almost completely withered)) | Herbicidal effect grade, K: Lolium multiflorum Lam. [5]: 5 (Herbicidal ratio of 90% or more (almost completely withered)) | Herbicidal effect grade, O: Chenopodium album [6]: 3 (Herbicidal ratio of 40% or higher and lower than 70%) | Effect on crop grade, d: soybean [7]: 1 (Herbicidal ratio of 5% or higher and lower than 20%) | Effect on crop grade, b: directly sowed rice plant [8]: 5 (Herbicidal ratio of 90% or more (almost completely withered)) | F: Digitaria ciliaris, herbicidal effect (criteria of Test Example 1) [9]: 5 (Herbicidal ratio of 90% or more (almost completely withered)) | H: Echinochloa crus-galli var. crus-galli, herbicidal effect (criteria of Test Example 1) [10]: 5 (Herbicidal ratio of 90% or more (almost completely withered)) | J: Alopecurus myosuroides, herbicidal effect (criteria of Test Example 1) [11]: 5 (Herbicidal ratio of 90% or more (almost completely withered)) | K: Lolium multiflorum Lam., herbicidal effect (criteria of Test Example 1) [12]: 5 (Herbicidal ratio of 90% or more (almost completely withered)) | M: Abutilon theophrasti, herbicidal effect (criteria of Test Example 1) [13]: 4 (Herbicidal ratio of 70% or higher and lower than 90%) | N: Amaranthus retroflexus, herbicidal effect (criteria of Test Example 1) [14]: 2 (Herbicidal ratio of 20% or higher and lower than 40%) | c: corn, effect on crop (criteria of Test Example 1) [15]: 5 (Herbicidal ratio of 90% or more (almost completely withered)) | b: directly sowed rice plant, effect on crop (criteria of Test Example 1) [16]: 5 (Herbicidal ratio of 90% or more (almost completely withered))

CON=C(C)CC1CC(OC(=O)COc2ccccc2)=C(c2c(C)cc(-c3ccc(Cl)cc3Cl)cc2C)C1=O (stereo not shown) [6-092]
Herbicidal effect grade, A: Echinochloa oryzacola Vasing. [1]: 3 (Herbicidal ratio of 40% or higher and lower than 70%) | Herbicidal effect grade, C: Monochoria vaginalis [2]: 0 (Herbicidal ratio of 5% or lower (almost no effect)) | Effect grade on crop, a: transplanted rice plant [3]: 0 (Herbicidal ratio of 5% or lower (almost no effect)) | effect on crop b (directly sowed rice plant), grade 0-5 [4]: 5 (Herbicidal ratio of 90% or more (almost completely withered)) | Herbicidal effect grade, K: Lolium multiflorum Lam. [5]: 5 (Herbicidal ratio of 90% or more (almost completely withered)) | Herbicidal effect grade, O: Chenopodium album [6]: 0 (Herbicidal ratio of 5% or lower (almost no effect)) | Effect on crop grade, d: soybean [7]: 0 (Herbicidal ratio of 5% or lower (almost no effect)) | Effect on crop grade, b: directly sowed rice plant [8]: 4 (Herbicidal ratio of 70% or higher and lower than 90%) | F: Digitaria ciliaris, herbicidal effect (criteria of Test Example 1) [9]: 5 (Herbicidal ratio of 90% or more (almost completely withered)) | H: Echinochloa crus-galli var. crus-galli, herbicidal effect (criteria of Test Example 1) [10]: 4 (Herbicidal ratio of 70% or higher and lower than 90%) | J: Alopecurus myosuroides, herbicidal effect (criteria of Test Example 1) [11]: 5 (Herbicidal ratio of 90% or more (almost completely withered)) | K: Lolium multiflorum Lam., herbicidal effect (criteria of Test Example 1) [12]: 5 (Herbicidal ratio of 90% or more (almost completely withered)) | M: Abutilon theophrasti, herbicidal effect (criteria of Test Example 1) [13]: 0 (Herbicidal ratio of 5% or lower (almost no effect)) | N: Amaranthus retroflexus, herbicidal effect (criteria of Test Example 1) [14]: 0 (Herbicidal ratio of 5% or lower (almost no effect)) | c: corn, effect on crop (criteria of Test Example 1) [15]: 2 (Herbicidal ratio of 20% or higher and lower than 40%) | b: directly sowed rice plant, effect on crop (criteria of Test Example 1) [16]: 4 (Herbicidal ratio of 70% or higher and lower than 90%)

CON=C(C)CC1CC(OC(=O)N2CCOCC2)=C(c2c(C)cc(C)cc2OC)C1=O (stereo not shown) [6-094]
Herbicidal effect grade, A: Echinochloa oryzacola Vasing. [1]: 5 (Herbicidal ratio of 90% or more (almost completely withered)) | Herbicidal effect grade, C: Monochoria vaginalis [2]: 3 (Herbicidal ratio of 40% or higher and lower than 70%) | Effect grade on crop, a: transplanted rice plant [3]: 5 (Herbicidal ratio of 90% or more (almost completely withered)) | effect on crop b (directly sowed rice plant), grade 0-5 [4]: 5 (Herbicidal ratio of 90% or more (almost completely withered)) | Herbicidal effect grade, K: Lolium multiflorum Lam. [5]: 5 (Herbicidal ratio of 90% or more (almost completely withered)) | Herbicidal effect grade, O: Chenopodium album [6]: 5 (Herbicidal ratio of 90% or more (almost completely withered)) | Effect on crop grade, d: soybean [7]: 0 (Herbicidal ratio of 5% or lower (almost no effect)) | Effect on crop grade, b: directly sowed rice plant [8]: 5 (Herbicidal ratio of 90% or more (almost completely withered)) | F: Digitaria ciliaris, herbicidal effect (criteria of Test Example 1) [9]: 5 (Herbicidal ratio of 90% or more (almost completely withered)) | H: Echinochloa crus-galli var. crus-galli, herbicidal effect (criteria of Test Example 1) [10]: 5 (Herbicidal ratio of 90% or more (almost completely withered)) | J: Alopecurus myosuroides, herbicidal effect (criteria of Test Example 1) [11]: 5 (Herbicidal ratio of 90% or more (almost completely withered)) | K: Lolium multiflorum Lam., herbicidal effect (criteria of Test Example 1) [12]: 5 (Herbicidal ratio of 90% or more (almost completely withered)) | M: Abutilon theophrasti, herbicidal effect (criteria of Test Example 1) [13]: 4 (Herbicidal ratio of 70% or higher and lower than 90%) | N: Amaranthus retroflexus, herbicidal effect (criteria of Test Example 1) [14]: 0 (Herbicidal ratio of 5% or lower (almost no effect)) | c: corn, effect on crop (criteria of Test Example 1) [15]: 5 (Herbicidal ratio of 90% or more (almost completely withered)) | b: directly sowed rice plant, effect on crop (criteria of Test Example 1) [16]: 5 (Herbicidal ratio of 90% or more (almost completely withered))

CON=C(C)CC1CC(OS(=O)(=O)N(C)C)=C(c2c(C)cc(C)cc2OC)C1=O (stereo not shown) [6-095]
Herbicidal effect grade, A: Echinochloa oryzacola Vasing. [1]: 5 (Herbicidal ratio of 90% or more (almost completely withered)) | Herbicidal effect grade, C: Monochoria vaginalis [2]: 0 (Herbicidal ratio of 5% or lower (almost no effect)) | Effect grade on crop, a: transplanted rice plant [3]: 5 (Herbicidal ratio of 90% or more (almost completely withered)) | effect on crop b (directly sowed rice plant), grade 0-5 [4]: 5 (Herbicidal ratio of 90% or more (almost completely withered)) | Herbicidal effect grade, K: Lolium multiflorum Lam. [5]: 5 (Herbicidal ratio of 90% or more (almost completely withered)) | Herbicidal effect grade, O: Chenopodium album [6]: 0 (Herbicidal ratio of 5% or lower (almost no effect)) | Effect on crop grade, d: soybean [7]: 0 (Herbicidal ratio of 5% or lower (almost no effect)) | Effect on crop grade, b: directly sowed rice plant [8]: 5 (Herbicidal ratio of 90% or more (almost completely withered)) | F: Digitaria ciliaris, herbicidal effect (criteria of Test Example 1) [9]: 5 (Herbicidal ratio of 90% or more (almost completely withered)) | H: Echinochloa crus-galli var. crus-galli, herbicidal effect (criteria of Test Example 1) [10]: 5 (Herbicidal ratio of 90% or more (almost completely withered)) | J: Alopecurus myosuroides, herbicidal effect (criteria of Test Example 1) [11]: 5 (Herbicidal ratio of 90% or more (almost completely withered)) | K: Lolium multiflorum Lam., herbicidal effect (criteria of Test Example 1) [12]: 5 (Herbicidal ratio of 90% or more (almost completely withered)) | M: Abutilon theophrasti, herbicidal effect (criteria of Test Example 1) [13]: 4 (Herbicidal ratio of 70% or higher and lower than 90%) | N: Amaranthus retroflexus, herbicidal effect (criteria of Test Example 1) [14]: 0 (Herbicidal ratio of 5% or lower (almost no effect)) | c: corn, effect on crop (criteria of Test Example 1) [15]: 5 (Herbicidal ratio of 90% or more (almost completely withered)) | b: directly sowed rice plant, effect on crop (criteria of Test Example 1) [16]: 5 (Herbicidal ratio of 90% or more (almost completely withered))
